Where no end group is shown, it is not given here.
Assays:
PDGF receptor (PDGFR) = biological target: T1, PDGF receptor (PDGFR) (Homo sapiens, UniProt P09619); assay: PDGF-induced PDGFR phosphorylation in PASMC; assay type: cell-based
T1 construct: the PDGF receptor (PDGFR) in PASMC (pulmonary aortic smooth muscle cells); host or cells: PASMC (pulmonary aortic smooth muscle cells)
Experimental: Cell culture. Human umbilical vein endothelial cells (HUVEC) and pulmonary aortic smooth muscle cells (PASMC) were obtained from Clonetics and maintained in endothelial cell basal medium-2 (EBM-2; Clonetics) and smooth muscle medium-2 (SmGM-2; Clonetics), respectively. Cells were cultured at 37° C. under a humidified atmosphere containing 5% CO2. For experimental purposes, cells were plated in 8 100-mm plastic dishes at 5,000 cells/cm^2 and were grown to confluence before overnight serum starvation. Cells were treated with vehicle or with a PCK3145 derivative diluted in 0.1 N NaOH, and stimulated with 50-100 ng/ml VEGF or PDGF, with 10 ng/ml of bFGF (basic fibroblast growth factor) or with 1 μM S1P (sphingosine-1-phosphate).
Immunoprecipitation and immunoblotting procedures. After treatment, cells were washed once with phosphate-buffered saline (PBS) containing 1 mM sodium orthovanadate and were incubated in the same medium for 1 h at 4° C. […] The cells were then scraped from the culture dishes and the resulting lysates were clarified by centrifugation at 10,000 g for 10 min; Protein concentrations were determined using the micro bicinchoninic acid method (Pierce). […] The immunoreactive bands were quantified by scanning densitometry (Molecular Dynamics). […]

U-87 cells = assay: U-87 cell adhesion to hyaluronic acid; assay type: cell-based; settings: U-87, 300 ug/ml, 48 hrs; adhesion 3 hours; three independent experiments
Experimental: ECM recognition is a crucial event in the cell adhesion processes involved in tumor progression. This process is mediated and regulated through specialized cell surface receptors or integrins. […] U-87 cells were treated with the PCK3145 derivative (300 ug/ml, 48 hrs), trypsinised, counted, and seeded on wells coated with 10 ug/ml BSA (bovine serum albumin) or HA. Cells were allowed to adhere for 3 hours. Three independent experiments were performed. […] One such potential intracellular protein is the GTPase RhoA, which is likely to mediate mechanisms regulating cytoskeletal morphogenesis.

HUVEC = assay: Matrigel endothelial cell tube formation assay; assay type: cell-based, Human; settings: HUVEC on Matrigel, 0-300 μg/ml, serum-free media, 24 hours
Experimental: Matrigel endothelial cell tube formation assay Matrigel (12.5 mg/ml) was thawed at 4° C., and 50 μl were quickly added to each well of a 96-well plate and allowed to solidify for 10 min at 37° C. […] The formation of capillary-like structures was examined microscopically and pictures (50×) were taken using a Retiga 1300 camera and a Zeiss Axiovert S100 microscope. The extent to which capillary-like structures formed in the gel was quantified by analysis of digitized images to determine the thread length of the capillary-like network, using a commercially available image analysis program (Northern Eclipse).
Matrigel endothelial cell tube formation assay. […] The extent to which capillary-like structures formed in the gel was quantified by analysis of digitized images using a commercially available image analysis software (Northern Eclipse) (25).
This three dimensional ECM model assay provides physiologically relevant environment for studies of cell morphology, biochemical function, and gene expression in endothelial cells (EC) that can be modulated for instance by tumor growth factors or hypoxic culture conditions. […] The extent of capillary-like structures formation (density and size of structures) can be quantified by analysis of digitized images to determine the relative size and area covered by the tube-like network, using an image analysis software (Un-Scan-it, Empix Imaging). […]

T1 sequence (P09619 33-1106): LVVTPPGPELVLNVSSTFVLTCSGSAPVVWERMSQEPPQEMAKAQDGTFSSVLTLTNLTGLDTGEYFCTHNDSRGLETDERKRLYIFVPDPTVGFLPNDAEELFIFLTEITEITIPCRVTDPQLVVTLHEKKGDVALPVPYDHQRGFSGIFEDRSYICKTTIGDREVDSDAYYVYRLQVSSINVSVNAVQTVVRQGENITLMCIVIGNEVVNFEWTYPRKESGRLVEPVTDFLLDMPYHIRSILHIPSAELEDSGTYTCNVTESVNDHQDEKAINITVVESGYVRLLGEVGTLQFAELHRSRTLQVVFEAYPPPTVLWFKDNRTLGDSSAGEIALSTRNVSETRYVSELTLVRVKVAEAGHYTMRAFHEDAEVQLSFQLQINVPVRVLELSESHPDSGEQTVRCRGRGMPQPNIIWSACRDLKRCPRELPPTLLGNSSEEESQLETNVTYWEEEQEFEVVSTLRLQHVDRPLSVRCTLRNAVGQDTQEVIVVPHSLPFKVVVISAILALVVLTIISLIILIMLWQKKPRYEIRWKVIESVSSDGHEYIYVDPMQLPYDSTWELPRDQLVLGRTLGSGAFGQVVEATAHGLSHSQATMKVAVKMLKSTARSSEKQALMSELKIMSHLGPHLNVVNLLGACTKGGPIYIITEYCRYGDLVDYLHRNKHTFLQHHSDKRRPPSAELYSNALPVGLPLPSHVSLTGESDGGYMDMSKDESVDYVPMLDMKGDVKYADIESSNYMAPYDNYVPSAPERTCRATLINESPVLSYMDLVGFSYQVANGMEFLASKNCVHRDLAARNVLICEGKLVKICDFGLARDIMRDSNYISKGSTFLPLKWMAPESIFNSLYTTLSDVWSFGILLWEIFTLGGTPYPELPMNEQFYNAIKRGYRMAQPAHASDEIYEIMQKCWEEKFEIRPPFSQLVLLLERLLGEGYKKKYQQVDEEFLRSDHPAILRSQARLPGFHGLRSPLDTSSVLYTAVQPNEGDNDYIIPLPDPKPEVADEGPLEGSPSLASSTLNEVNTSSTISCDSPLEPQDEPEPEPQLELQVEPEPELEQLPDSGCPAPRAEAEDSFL

PDGFR phosphorylation induced by PDGF (PDGF receptor (PDGFR)): inhibition
Sequence: EWQTDNCETCTCYET (cysteine pairing not given here) [PCK3145 derivative, PCK3145 derivative with acetylaminomethyl groups on the three cysteines]
diminution of cell adhesion on HA (U-87 cells): 45-76%
capillary-like structure formation (tubulogenesis) (HUVEC): negatively affects tubulogenesis
